Measured values taken from patent US9139795B2, “Biodegradable lubricant composition” (IDEMITSU KOSAN CO., LTD., priority 2009, dated 2015).

Legend:
[1] = Kinematic viscosity (JIS K 2283); type: physicochemical; conditions: base oil ester
[2] = Acid value (JIS K 2501); type: physicochemical; conditions: base oil ester
[3] = Saponification value (JIS K 2503); type: physicochemical; conditions: base oil ester
[4] = Biodegradability, modified MITI test method (OECD301C); conditions: base oil ester alone
Experimental: A biodegradation rate was measured according to the modified MITI test method (OECD301C).

Substance	Viscosity @ 40° C. [1] [mm^2/s]	Acid Value [2] [mgKOH/g]	Saponification Value [3] [mgKOH/g]	Biodegradability [4] [%]
di(pentaerythritol)oleate [Ester E]	556.8	3.30	172	
trimethylolpropane diisostearate [Ester G]	105.0	0.06	176	65.0
